Data: patent publication US20260263505A1, “Uses of Compositions Comprising a Prebiotic Component” (Mead Johnson Nutrition Company, priority 2021, published 2026)

Tested on: male Sprague Dawley rats
Test: Telemetric sleep/wake recording at baseline and after inescapable tail shock stress, following early life diet (P21-P51)
Assay type: in vivo, rat
Settings: mean ± SEM
Description: The aim of this study was to investigate the extent to which early life dietary oligosaccharides and/or polydextrose (PDX+GOS) modulate sleep and protect sleep architecture following stress.
Timed-pregnant female Sprague Dawley rats were purchased from Charles River Laboratories International, Inc., (Hollister, CA and Canada). Male pups were weaned at postnatal day 21 (P21) and randomised into one of five treatment groups (see Table 6 below). All rats were housed in a temperature-controlled recording room under a 12 hour light: dark cycle with food and water available ad libitum. Environmental conditions were regulated, and room temperature (24±2° C.), humidity (50±20% relative humidity), and lighting were monitored and recorded. Animals were inspected daily.
All experimenters were blind to type of diet administered to each group. The diets were formulated by Mead Johnson Nutrition (MJN, Evansville IN) based on AlN-93G specifications to be isocaloric and have similar carbohydrate, protein, fat, vitamin and mineral levels. Experimental diets contained 7.0 g/kg galactooligosaccharides (GOS), 7.0 g/kg polydextrose (PDX) and/or 2.2 g/kg sialyllactose (SL). Diets were produced by Envigo (Indianapolis, IN), and ingredients were supplied by: PDX (Danisco, Terre Haute, IN), GOS (Friesland Campina, Zwolle, The Netherlands) and SL (SAL-10; Arla Foods Ingredients, Aarhus, Denmark).
A total of n=105 male Sprague Dawley rats were used in this study with a subset of animals (n=40) used for sleep/wake analysis. Upon weaning (P21), rats were randomised into one of five treatment groups, based upon diet and exposure to a stressor, as follows:
The experimental protocol consisted of two phases a diet manipulation phase and a sleep-stressor phase. During the diet manipulation phase, rat weanlings were randomised to either the control diet or one of the three formulated diets. Rats were provided these diets from age P21 to P51, after which all animals were given standard chow. During this diet-manipulation phase, body weights were recorded twice per week and food consumption determined for weekly intervals.
The second phase of the protocol consisted of telemetric recordings, exposure to stressor, and behavioural assessment. Telemeters were implanted on P64 and undisturbed baseline recordings obtained on P84.
Rats in groups 2 to 5 were exposed to inescapable shock stress (uncontrollable stress paradigm) on P85 using previously published protocols (Greenwood et al., Behav Brain Res. 2012 Aug. 1; 233(2): 314-321). Briefly, rats were restrained in Plexiglass tubes and received ~100, 5 s tail shocks (1.5 mA) on a […] variable-interval schedule. Stress protocols were conducted during the beginning of the light period. After the end of the stress protocol, rats were returned to their home cages. Home-cage control animals (no stress) remained undisturbed during this period.

[1] = Dark period (ZT13-24), Baseline
[2] = Dark period (ZT13-24), Post-stress
[3] = Light period (ZT5-12), Baseline
[4] = Light period (ZT5-12), Post-stress

sialyllactose [SL] gave an NREMS bout duration [1] of 1.3 ± 0.1 min, an NREMS bouts [1] of 11.9 ± 1.1 number/h and an NREMS duration [1] of 30.1 ± 3.0 % recording time. It also gave an REMS bout duration [1] of 0.9 ± 0.1 min, an REMS bouts [1] of 2.8 ± 0.4 number/h and an REMS duration [1] of 6.0 ± 0.9 % recording time. It also gave a Wake bout duration [1] of 10.9 ± 2.2 min, a Wake bouts [1] of 8.3 ± 0.6 number/h and a Wake duration [1] of 63.9 ± 3.8 % recording time. For the same substance, the NREMS bout duration [2] was 1.5 ± 0.1 min, the NREMS bouts [2] was 17.7 ± 1.3 number/h and the NREMS duration [2] was “[43.7 ± 1.7**] % recording time”. The REMS bout duration [2] was “[1.3 ± 0.1*] min”, the REMS bouts [2] was “[5.5 ± 0.5**] number/h” and the REMS duration [2] was “[12.3 ± 1.0**] % recording time”. The Wake bout duration [2] was 4.1 ± 0.8 min, the Wake bouts [2] was 10.4 ± 1.1 number/h and the Wake duration [2] was “[43.9 ± 2.4**] % recording time”. For the same substance, the NREMS bout duration [3] was 1.5 ± 0.1 min, the NREMS bouts [3] was 20.1 ± 1.5 number/h and the NREMS duration [3] was 51.0 ± 3.1 % recording time. The REMS bout duration [3] was 1.2 ± 0.1 min, the REMS bouts [3] was 5.3 ± 0.6 number/h and the REMS duration [3] was 12.6 ± 1.3 % recording time. It also gave a Wake bout duration [3] of 3.5 ± 1.1 min, a Wake bouts [3] of 10.1 ± 0.6 number/h and a Wake duration [3] of 36.4 ± 4.2 % recording time. The NREMS bout duration [4] was 2.1 ± 0.1 min, the NREMS bouts [4] was 16.8 ± 1.1 number/h and the NREMS duration [4] was 56.1 ± 2.1 % recording time. The REMS bout duration [4] was 1.6 ± 0.0 min, the REMS bouts [4] was 5.3 ± 0.7 number/h and the REMS duration [4] was 14.4 ± 1.7 % recording time. It also gave a Wake bout duration [4] of 3.0 ± 0.7 min, a Wake bouts [4] of 7.8 ± 0.6 number/h and a Wake duration [4] of 29.5 ± 3.5 % recording time.
